Assays:
[1] = tested on: CCl4-induced liver fibrosis mouse model; assay: CCl4-induced liver fibrosis mouse model; type: in vivo, mouse (male C57BL/6)
Description: Hepatic fibrosis is an outcome of many chronic liver diseases, including hepatitis B virus, hepatitis C virus, alcoholic liver disease, non-alcoholic steatohepatitis and diverse chronic intoxication. It was thus desired to evaluate the effect of Compound I on murine CCl4-induced liver fibrosis. Intoxication with CCl4 results in hepatocyte damage, necrosis, inflammation, and fibrosis, which spreads to link the vascular structures that feed into and drain the hepatic sinusoid (the portal tract and central vein radical, respectively), and over 8-30 weeks results in the development of fibrosis to hepatocellular carcinoma. Therefore, evaluation of candidate antifibrotic drugs such as Compound I can be undertaken by treatment of the mice at appropriate time points and histologic, biochemical and cellular readouts may be used to monitor candidate drug efficacy in this model.
CCl4 (10% in corn oil, 2 ml/kg) was intraperitoneally injected twice a week for 16 weeks in male C57BL/6. Compound I (200 mg/kg) was orally administered every day from day 1 to day 113. Mice were euthanasized and histology and liver fibrotic markers were analyzed.
To determine if Compound I has an effect on liver fibrosis, hydroxyproline level was used to measure the collagen content in the tissue, which is indicative of liver fibrosis.
The reduction of collagen level in liver tissue was also observed in histological micrographs using the Masson's Trichrome staining.
The Masson's trichrome stain the cytoplasm, keratin, muscle fibers and intracellular fibers in red colour; nuclei in black colour and collagen (fibrous tissue) in blue color.
Another experiment has been performed with Compound 1 and Compound V where CCL4 (10% in olive oil, 2 ml/kg) was intraperitoneally injected twice a week for 8 weeks in male C57BL/6. Compound 1 and compound V were orally administered (100 and 200 mg/kg) every day from day 1 to day 58. Mice were euthanasized and collagen content (marker of fibrosis) in the liver was quantified by histomorphometry using Masson's trichrome staining.

[2] = tested on: normal human dermal fibroblasts (NHDF); assay: TGF-β-induced and basal CTGF, collagen 1 and α-SMA transcript expression in NHDF (quantitative real-time PCR); type: cell-based
Description: The effect of Compound of the invention on skin fibrosis was studied using normal human dermal fibroblasts (NHDF).
In vitro analysis was undertaken to determine the effect of Compound I on TGF-β-induced CTGF, collagen 1 and α-SMA (markers of fibrosis) on normal human dermal fibroblasts (NHDF). Expression of the profibrotic (CTGF) and fibrotic markers (collagen 1 and α-SMA) were determined by quantitative real-time PCR.
Myofibroblasts are terminally differentiated cells derived from fibroblasts, epithelial and mesenchymal stem/stromal (fibrocytes) cells that play an important role in tissue fibrosis via increased matrix synthesis such as collagen. α-SMA is a well-known marker of myofibroblast.

[3] = tested on: collagen 1 mRNA in NHDF cells; assay: Inhibition of collagen mRNA in TGF-β-activated NHDF fibroblasts; type: cell-based; settings: Homo sapiens, compound 0.5 mM
Description: (§1) CTGF, collagen 1 and α-SMA are fibrotic markers produced by activated fibroblasts and by epithelial cells that undergo to epithelial-mesenchymal transition (EMT).
(§2) Table 2: Percentage of inhibition of collagen in epithelial cells (HK2 cells) and fibroblasts (NHDF) and percentage of inhibition of α-SMA in fibroblasts (NRK-49F and NHDF) has been determined for several compounds according the invention. In all cases, the mRNA of collagen and α-SMA has been measured, and the inhibition was evaluated in presence of a respective concentration of the tested compound. The compounds have been tested at different concentrations [mM]. All compounds reduce the expression of collagen and α-SMA in HK-2, NHDF and NRK-49F cells.

[4] = tested on: α-SMA mRNA in NRK-49F cells; assay: Inhibition of α-SMA mRNA in TGF-β-activated NRK-49F fibroblasts; type: cell-based, rat; settings: Rattus norvegicus, NRK-49F, compound 0.5 mM
Description: as §1, §2

Structure (SMILES): CCCCCc1cccc(CC(=O)[O-])c1.[Na+] [Compound I, Sodium Salt of 3-pentylphenylacetic acid]
- collagen score in liver (Masson's Trichrome staining) ([1]; CCl4 16 weeks, oral 200 mg/kg daily, FIG. 20): significant reduction
- collagen deposition and bridging formation in liver (photomicrographs) ([1]; CCl4 16 weeks, oral 200 mg/kg daily, FIG. 21): significant reduction of collagen deposition and bridging formation
- collagen content in liver (histomorphometry, Masson's trichrome) ([1]; CCl4 twice a week for 8 weeks, oral 100 and 200 mg/kg every day, day 1 to day 58, FIG. 22): significant reduction
- hydroxyproline level in liver ([1]; CCl4 twice a week for 16 weeks, oral 200 mg/kg every day, day 1 to day 113, FIG. 19): significant reduction
- TGF-β-induced CTGF transcript expression ([2]; TGF-β 5 ng/ml, compound 500 μM, FIG. 23): inhibited
- TGF-β-induced collagen 1 transcript expression ([2]; TGF-β 5 ng/ml, compound 500 μM, FIG. 24): inhibited
- TGF-β-induced α-SMA transcript expression ([2]; TGF-β 5 ng/ml, compound 500 μM, FIG. 25): inhibited
- inhibition of α-SMA in TGF-β induced fibroblasts ([2]; TGF-β induced): 90%
- basal expression of CTGF ([2]; compound alone (0.5 mM), no TGF-β, FIG. 23): decreased basal expression
- basal expression of collagen 1 ([2]; compound alone (0.5 mM), no TGF-β, FIG. 24): decreased basal expression
- basal expression of α-SMA ([2]; compound alone (0.5 mM), no TGF-β, FIG. 25): decreased basal expression
- inhibition at 500 µM [3]: 65%
- inhibition at 500 µM [4]: 85%
